Source: patent US7786041B2, “Synergistic crop plant-compatible herbicidal compositions comprising herbicides from the group of the benzoylcyclohexanediones” (priority 2005, dated 2010)

Tests used:
[1] = system: corn; assay: Post-emergence damage to corn, second test series; conditions: in vivo
Protocol: (§1) Seeds of monocotyledonous and dicotyledonous weed and crop plants are placed into sandy loam in wood fiber pots or in plastic pots, covered with soil and cultivated in a greenhouse, including during the vegetation period outdoors outside of the greenhouse, under good growth conditions. 2-3 weeks after sowing, the test plants are treated at the one- to three-leaf stage. The test compounds, formulated as wettable powders (WP) or liquid (EC) are, in various dosages with a water application rate of 300 l/ha (converted), with added wetting agent (0.2 to 0.3%), sprayed onto the plants and the surface of the soil. 3 to 4 weeks after the treatment of the test plants, the effect of the preparations is rated visually in comparison to untreated controls (herbicidal effect in percent (%): 100% effect=plants have died, 0% effect=like control plants).
(§2) In a second test series, the herbicidal action and the damage to corn of the compositions according to the invention (A+Bx+C1) was compared to that of the herbicide alone (A) and to that of a herbicidal composition (A+C1) known from the prior art.

[2] = system: harmful plants Abutilon theophrasti, Ambrosia elatior, Digitaria sanguinalis, Echinochloa crus galli, Pharbitis purpureum, Fallopia convolvulus, Setaria …; assay: Herbicidal post-emergence action, second test series, mean over ten harmful plants; assay type: in vivo; conditions: Table 5, mean value of the herbicidal actions against ten harmful plants, each herbicide 200 g of a.i./ha, safener C1 100 g of a.i./ha
Protocol: as §1, §2

CS(=O)(=O)c1ccc(C(=O)C2C(=O)CCCC2=O)c(Cl)c1COCC(F)(F)F [A]
Damage to corn [1]: 11% | Herbicidal action [2]: 86%
